Laboratory results as given in patent US7838518B2, “1-arylsulfonyl-3-substituted indole and indoline derivatives useful in the treatment of central nervous system disorders” (N.V. Organon, priority 2002, dated 2010).
Where a name gives a salt, the structure may show the parent alone.

molecular target: T1, human 5-HT6 receptor (Homo sapiens, UniProt P50406); assay: 5-HT6 receptor binding assay ([3H]-LSD competition); conditions: membranes of NIH 3T3 cells stably expressing the human 5-HT6 gene; [3H]-LSD radioligand; IC50 converted to pKi by Cheng-Prusoff equation; read-out: pKi (affinity for the 5-HT6 receptor) (converted)
T1 construct: expressed in transfected cells
T1 sequence (P50406 whole entry): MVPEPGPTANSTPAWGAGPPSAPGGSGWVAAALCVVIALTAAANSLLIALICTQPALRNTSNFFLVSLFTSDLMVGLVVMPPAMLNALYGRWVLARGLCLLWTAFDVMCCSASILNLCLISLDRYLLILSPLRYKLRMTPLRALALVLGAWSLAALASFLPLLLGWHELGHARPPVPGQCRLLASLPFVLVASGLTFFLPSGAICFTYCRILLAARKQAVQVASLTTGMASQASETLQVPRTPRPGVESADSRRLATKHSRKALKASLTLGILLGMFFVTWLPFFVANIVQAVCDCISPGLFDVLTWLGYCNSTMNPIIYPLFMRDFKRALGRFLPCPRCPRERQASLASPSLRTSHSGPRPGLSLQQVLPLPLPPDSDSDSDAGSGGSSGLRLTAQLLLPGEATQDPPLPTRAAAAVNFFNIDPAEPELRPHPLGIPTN
Experimental: The ability of the compounds of the invention to interact with the 5-HT6 receptor is established in (competitive) binding studies to NIH 3T3 cells stably expressing the human 5-HT6 receptor.
NIH 3T3 cells stably expressing the human 5-HT6 gene were grown at 37° C. in a 5% CO2 atmosphere in DMEM supplemented with 10% cosmic calf serum (Hyclone) and subcultured when confluent. Cells were harvested by trypsination (Sigma) and membranes prepared by homogenisation followed by centrifugation in […] Tris buffer (pH 7.4) containing […] magnesium sulphate and […] EDTA. Radioligand binding assays were performed in 96 well polystyrene deep well plates (Semat) in a final volume of 500 μl, consisting of 100 μl of competing drug, 100 μl of 10 nmole·L^−1 [^3H]-lysergic acid diethylamide (LSD) and 300 μl of diluted membrane expressing the 5-HT6 receptor. All test compounds were dissolved in DMSO (dimethyl-sulfoxide) at 10 mM and serially diluted is assay buffer to give a six-fold concentration range (between 0.01 nM and 100 μM). Non-specific binding was determined with 10 μM Methiothepin. Plates were incubated at room temperature for 90 minutes. The reactions were terminated by rapid filtration using a Packard harvester onto 96 well GF/B filter plates (Packerd Unifilter) presoaked with 0.3% w/N polyethyleneimine, washed 3 times with ice-cold assay buffer (1 ml), oven dried and 50 μl Microscint-20 added. The retained radioactivity was then determined using a scintillation counter.
Data were analysed using standard curve fitting procedures (Graphpad: four parameter logistic equation) to produce IC50 values for active compounds (where IC50 is the concentration of test compound causing 50% inhibition of binding). IC50 values were conerted to pKi values using the Cheng-Prusoff equation 1 (Cheng, Y. and Prosoff, W. H., Biochem. Pharmacol. 22, 3099-3108, 1973).

SMILES	Ki
COc1ccc(S(=O)(=O)N2CC(C(=O)NCCC3CCCN3C)c3ccccc32)c2ccccc12 (centres unmarked) [Example 1, 1-(4-Methoxynaphthalene-1-sulfonyl)-2,3-dihydro-1H-indole-3-carboxylic acid [2-(1-methyl-pyrrolidin-2-yl)-ethyl]amide]	< 31.6 nM
COc1ccc(S(=O)(=O)N2CC(C(=O)NC3CCCN(C)C3)c3ccccc32)c2ccccc12 (centres unmarked) [Example 2, 1-(4-Methoxynaphthalene-1-sulfonyl)-2,3-dihydro-1H-indole-3-carboxylic acid (1-methyl-piperidin-3-yl)amide]	< 31.6 nM
COc1ccc(S(=O)(=O)N2CC(C(=O)N3CCNCC3)c3ccccc32)c2ccccc12 (centres unmarked) [Example 17, [1-(4-Methoxynaphthalene-1-sulfonyl)-2,3-dihydro-1H-indol-3-yl]-piperazin-1-yl-methanone]	< 31.6 nM
CCN(CC)CCNC(=O)C1CN(S(=O)(=O)c2ccc(OC)c3ccccc23)c2ccccc21 (centres unmarked) [Example 24, 1-(4-Methoxynaphthalene-1-sulfonyl)-2,3-dihydro-1H-indole-3-carboxylic acid (2-diethylamino-ethyl)-amide]	< 31.6 nM
COc1ccc(S(=O)(=O)N2CC(C(=O)NC3CCN(C)CC3)c3ccccc32)c2ccccc12 (centres unmarked) [Example 25, 1-(4-Methoxynaphthalene-1-sulfonyl)-2,3-dihydro-1H-indole-3-carboxylic acid (1-methyl-piperidin-4-yl)-amide]	< 31.6 nM
COc1ccc(S(=O)(=O)N2CC(C(=O)NC3CC4CCC(C3)N4C)c3ccccc32)c2ccccc12 (centres unmarked) [Example 31, 1-(4-Methoxynaphthalene-1-sulfonyl)-2,3-dihydro-1H-indole-3-carboxylic acid (8-methyl-8-aza-bicyclo[3.2.1]oct-3-yl)amide]	< 31.6 nM
COc1ccc(S(=O)(=O)N2CC(C(=O)N(C)C3CCN(C)CC3)c3ccccc32)c2ccccc12 (centres unmarked) [Example 35, 1-(4-Methoxynaphthalene-1-sulfonyl)-2,3-dihydro-1H-indole-3-carboxylic acid methyl-(1-methyl-piperidin-4-yl)-amide]	< 31.6 nM
CN1CCC(N(C)C(=O)C2CN(S(=O)(=O)c3cccc(C(F)(F)F)c3)c3ccccc32)CC1 (centres unmarked) [Example 39, 1-(3-Trifluoromethyl-benzenesulfonyl)-2,3-dihydro-1H-indole-3-carboxylic acid methyl-(1-methyl-piperidin-4-yl)-amide trifluoroacetate]	< 31.6 nM
CN1CCC(N(C)C(=O)C2CN(S(=O)(=O)c3cccc(Br)c3)c3ccccc32)CC1 (centres unmarked) [Example 40, 1-(3-Bromo-benzenesulfonyl)-2,3-dihydro-1H-indole-3-carboxylic acid methyl-(1-methyl-piperidin-4-yl)-amide trifluoroacetate]	< 31.6 nM
CN1CCC(N(C)C(=O)C2CN(S(=O)(=O)c3ccc(OC(F)(F)F)cc3)c3ccccc32)CC1 (centres unmarked) [Example 42, 1-(4-Trifluoromethoxy-benzenesulfonyl)-2,3-dihydro-1H-indole-3-carboxylic acid methyl-(1-methyl-piperidin-4-yl)-amide trifluoroacetate]	< 31.6 nM
CN1CCC(N(C)C(=O)C2CN(S(=O)(=O)c3ccc(C(F)(F)F)cc3)c3ccccc32)CC1 (centres unmarked) [Example 50, 1-(4-Trifluoromethyl-benzenesulfonyl)-2,3-dihydro-1H-indole-3-carboxylic acid methyl-(1-methyl-piperidin-4-yl)-amide trifluoroacetate]	< 31.6 nM
CN1CCC(N(C)C(=O)C2CN(S(=O)(=O)c3cc(Cl)sc3Cl)c3ccccc32)CC1 (centres unmarked) [Example 51, 1-(2,5-Dichloro-thiophene-3-sulfonyl)-2,3-dihydro-1H-indole-3-carboxylic acid methyl-(1-methyl-piperidin-4-yl)-amide trifluoroacetate]	< 31.6 nM
CN1CCC(N(C)C(=O)C2CN(S(=O)(=O)c3ccc4c(c3)CCO4)c3ccccc32)CC1 (centres unmarked) [Example 55, 1-(2,3-Dihydro-benzofuran-5-sulfonyl)-2,3-dihydro-1H-indole-3-carboxylic acid methyl-(1-methyl-piperidin-4-yl)-amide trifluoroacetate]	< 31.6 nM
CN1CCC(N(C)C(=O)C2CN(S(=O)(=O)c3ccc4ccccc4c3)c3ccccc32)CC1 (centres unmarked) [Example 58, 1-(Naphthalene-2-sulfonyl)-2,3-dihydro-1H-indole-3-carboxylic acid methyl-(1-methyl-piperidin-4-yl)-amide trifluoroacetate]	< 31.6 nM
CN1CCC(N(C)C(=O)C2CN(S(=O)(=O)c3cccc4ccccc34)c3ccccc32)CC1 (centres unmarked) [Example 59, 1-(Naphthalene-1-sulfonyl)-2,3-dihydro-1H-indole-3-carboxylic acid methyl-(1-methyl-piperidin-4-yl)-amide trifluoroacetate]	< 31.6 nM
CN1CCC(N(C)C(=O)C2CN(S(=O)(=O)c3cccc(-c4ccccc4)c3)c3ccccc32)CC1 (centres unmarked) [Example 60, 1-(Biphenyl-3-sulfonyl)-2,3-dihydro-1H-indole-3-carboxylic acid methyl-(1-methyl-piperidin-4-yl)-amide trifluoroacetate]	< 31.6 nM
CN1CCC(N(C)C(=O)C2CN(S(=O)(=O)c3csc4ccccc34)c3ccccc32)CC1 (centres unmarked) [Example 62, 1-(Benzo[b]thiophene-3-sulfonyl)-2,3-dihydro-1H-indole-3-carboxylic acid methyl-(1-methyl-piperidin-4-yl)-amide trifluoroacetate]	< 31.6 nM
COc1ccc(S(=O)(=O)N2CC(C(=O)N(C)C3CCN(C)CC3)c3ccccc32)cc1Br (centres unmarked) [Example 69, 1-(3-Bromo-4-methoxy-benzenesulfonyl)-2,3-dihydro-1H-indole-3-carboxylic acid methyl-(1-methyl-piperidin-4-yl)-amide trifluoroacetate]	< 31.6 nM
CN1CCC(N(C)C(=O)C2CN(S(=O)(=O)c3cccc4c(Cl)cccc34)c3ccccc32)CC1 (centres unmarked) [Example 71, 1-(5-Chloro-naphthalene-1-sulfonyl)-2,3-dihydro-1H-indole-3-carboxylic acid methyl-(1-methyl-piperidin-4-yl)-amide trifluoroacetate]	< 31.6 nM
Cc1cc(S(=O)(=O)N2CC(C(=O)N(C)C3CCN(C)CC3)c3ccccc32)c(C(F)(F)F)o1 (centres unmarked) [Example 109, 1-(5-Methyl-2-trifluoromethyl-furan-3-sulphonyl)-2,3-dihydro-1H-indole-3-carboxylic acid methyl-(1-methyl-piperidin-4-yl)-amide]	< 31.6 nM
